Reference: patent publication US20260021186A1, “Fatty Acid-D-Amino Acid Peptides Conjugates as Anaplerotic Compounds for Use in Treating Propionic Acidemia, Methylmalonic Acidurias, and Energy Metabolic Disorders” (University of Pittsburgh - Of the Commonwealth System of …, priority 2022, published 2026)

How the values were obtained:
[1] = tested on: Fb859 propionic acidemia patient fibroblasts; assay: Lysine succinylation of cellular proteins by immunofluorescence confocal microscopy; format: cell-based, human; conditions: media without glucose
Description: FIG. 7 are immunocytochemistry photomicrographs showing the effect of incubation of Fb859 propionic acidemia patient fibroblasts on for lysine succinylation with 90 μM of PMA010, 90 μM of PMA011, 90 μM of succinic acid, 90 μM of methylmalonic acid, or 90 μM adipic acid for 72 hours. Immunocytochemistry of the fibroblast cells were stained for anti-succinyllysine antibody, anti-MTCO1 antibody and DAPI for nuclei. Instrument: Zeiss LSM 710 confocal Microscopy. Magnification: 40×. The cells were grown in glass coverslips at a seeding density of 3-5×10^4 cells. The media for untreated and treatment groups had no glucose, glutamine or pyruvate, and lipid stripped FBS was included instead of regular FBS. Scale bar=20 μm.
FIGS. 8A-8F are a comparison of lysine succinylation of cellular proteins visualized by immunofluorescence confocal microscopy in a Propionic Acidemia (Fb859) patient untreated (FIG. 8A) and treated with 30 μM and 90 μM of D-Serine (FIG. 8B), 30 µM and 90 μM of PMA007 (FIG. 8C), or 30 μM and 90 μM of PMA010 (FIG. 8D). Scale bar=20 μm. FIG. 8E is a bar graph showing the quantification of the percent change in lysine succinylation (green) signal, from the immunofluorescence confocal micrographs of FIGS. 8B and 8C, in response to the treatment of D-serine and PMA007. FIG. 8F is a bar graph showing the quantification of the percent change in lysine succinylation (green) signal, from the immunofluorescence confocal micrographs of a D-Serine repeat experiment and FIG. 8D, in response to the treatment of D-serine and PMA010. Asterisks indicate statistical significance calculated at the raw data level (n=3); **P<0.01, ***P<0.001, ****P<0.0001 statistically compared to untreated. Statistical analysis used T-test.
Immunohistochemistry: Patient cells were grown in glass coverslips at a seeding density of 3-5×10^4 cells. The media for untreated and treatment groups had no glucose, glutamine or pyruvate, and lipid stripped FBS was included instead of regular FBS. NIH Image J software was used to quantify the fluorescence intensity from 50-60 cells per group. Immunocytochemistry of propionic acidemia patient (Fb859) fibroblast cells lines stained for anti-succinyllysine (Green), anti-MTCO1 (Red), or anti-TOMM20 antibodies, and DAPI (Blue) for nuclei. Instrument: Zeiss LSM 710 confocal Microscopy. Statistical analysis used Tukey multiple range test. ****P<0.0001, [PMA010] (90 μM) treatment group statistically compared to control cells grown in the presence of regular complete DMEM media, untreated and [PMA010] (30 μM) cells grown in the absence of glucose/pyruvate/L-glutamine.

[2] = tested on: PA patient cells, Fb859; assay: Measurement of mitochondrial respiration (Seahorse XF MitoStress test, OCR); format: cell-based, human; conditions: FIGS. 12A-12D; 30 μM and 90 μM for 72 h
Description: Measurement of Mitochondrial Respiration Seahorse: Fb859 cells were grown in regular DMEM media until 85-90% confluency. The cells were harvested and seeded at a concentration of 25,000 cells/80 μl (n=8 replicates) in poly-D lysine coated XFe seahorse 96well plate in regular DMEM media and incubated overnight at 37° C. in a 5% CO2 incubator. Following day, the culture media was replaced in designated wells with the following for 72 h:180 μl of Specialty Media A (seahorse XFDMEM base media+10% fat stripped FBS+Glucose+sodium pyruvate+L-glutamine+0.5 mM carnitine). 180 μl of Specialty Media B (scahorse XFDMEM base media+10% stripped FBS+0.5 mM carnitine and no added glucose, sodium pyruvate or glutamine). 180 μl of Specialty media B containing experimental compounds. After 72 h incubation the Specialty media A & B was replaced in respective designated wells with 180 μL Seahorse XF DMEM base media containing glucose, sodium pyruvate. […] OCR was determined (Seahorse XF MitoStress test). Finally, cells were lysed, and protein content was determined. […]
Measurement of Mitochondrial Respiration: Control Fb826 and Patient Fb859 cells were grown in regular DMEM media without adding extra glutamine until 85-90% confluency. […] Oxygen consumption rate (OCR) was determined (Seahorse XF MitoStress test). Finally, cells were lysed, and protein content was determined. […]

## C[C@@H](NC(=O)CCCCC(=O)O)C(=O)N[C@H](Cc1c[nH]cn1)C(=O)O [PMA010, 6-(((R)-1-(((R)-1-carboxy-2-(1H-imidazol-4-yl)ethyl)amino)-1-oxopropan-2-yl)amino)-6-oxohexanoic acid]
[1]; FIG. 7, 90 μM, 72 hours, glutamine or pyruvate, lipid stripped FBS
  lysine succinylation (green staining) compared to untreated cells: obvious increase in the green staining
[1]; FIGS. 8A-8F, 30 μM and 90 μM, pyruvate, glutamine, stripped FBS
  lysine succinylation (green) signal: Restoration of lysine succinylation (green) signal
[2]
  oxygen consumption parameters compared to individual components D-Serine and D-Histidine: improved
